Data as given in patent US20100317575A1, “PHARMACEUTICAL COMPOSITION COMPRISING A PYRAZOLE-O-GLUCOSIDE DERIVATIVE” (BOEHRINGER INGELHEIM INTERNATIONAL GMBH, priority 2007, published 2010).

How the values were obtained:
the diabetic = details: metformin on its own; cited from earlier work
[1] = tested on: Male Zucker Diabetic Fatty (ZDF) rats (ZDF/Crl-Lepr^fa); assay: Blood glucose AUC 0-7 h on day 20 of treatment in ZDF rats; format: in vivo, rat
Method: All experimental protocols concerning the use of laboratory animals are reviewed by a federal Ethics Committee and approved by governmental authorities. […] Control animals are dosed twice daily with vehicle alone. Blood samples are obtained by tail bleed. Blood glucose is measured with a glucometer and HbA1c is measured with an automated analyzer (Cobas Integra 400, Roche). Prior to start of treatment, the animals are randomized for blood glucose and HbA1c (n=10/group). On day 20 of treatment, blood glucose is measured in tail blood pre-dose, 0.5 h, 1.5 h, 3 h, and 7 h after dosing. Blood glucose is quantified by calculating the total glucose AUC 0-7 h. The data are presented as mean±SEM. The two-sided unpaired Student t-test is used for statistical comparison of the control group and the active groups.

[2] = tested on: Male Zucker Diabetic Fatty (ZDF) rats (ZDF/Crl-Lepr^fa); assay: HbA1c on day 37 of treatment in ZDF rats; format: in vivo, rat; details: overnight fasted
Method: All experimental protocols concerning the use of laboratory animals are reviewed by a federal Ethics Committee and approved by governmental authorities. Male Zucker Diabetic Fatty (ZDF) rats (ZDF/Crl-Lepr^fa) at the age of 12 weeks are treated for 5 weeks with the pyrazole-O-glucoside (16), i.e. 4-(2-fluoro-4-methoxy-benzyl)-1-isopropyl-5-methyl-3-β-D-glucopyranos-1-yloxy-1H-pyrazole, at a dose of 10 mg/kg administered twice daily in the morning and evening, or with metformin at a dose of 200 mg/kg once daily in the morning, or with the combination of the pyrazole-O-glucoside and metformin at the same dose regimens. Vehicle for administration is 0.5% aqueous hydroxyethylcellulose containing 0.015% Polysorbat 80. Control animals are dosed twice daily with vehicle alone. Blood samples are obtained by tail bleed. Blood glucose is measured with a glucometer and HbA1c is measured with an automated analyzer (Cobas Integra 400, Roche). Prior to start of treatment, the animals are randomized for blood glucose and HbA1c (n=10/group).
On day 37 of treatment, HbA1c is measured pre-dose in tail blood obtained from overnight fasted animals. The data are presented as mean±SEM.

## CN(C)C(=N)N=C(N)N [Metformin, metformin]
The diabetic
  average improvement in the HbA1c value: 1.0-1.5%
[1]; metformin 200 mg/kg once daily
  reduction of total glucose AUC 0-7 h versus control: 11%
[2]; metformin 200 mg/kg once daily
  reduction of HbA1c (numerically) versus control: 0.3%

## COc1ccc(Cc2c(O[C@@H]3O[C@H](CO)[C@@H](O)[C@H](O)[C@H]3O)nn(C(C)C)c2C)c(F)c1 [(16), 4-(2-fluoro-4-methoxy-benzyl)-1-isopropyl-5-methyl-3-β-D-glucopyranos-1-yloxy-1H-pyrazole]
[1]; 10 mg/kg twice daily
  reduction of total glucose AUC 0-7 h versus control: 38%
[2]; 10 mg/kg twice daily
  reduction of HbA1c (numerically) versus control: 2.1%
